± gives the uncertainty stated by the source.
Assay: xn = mol fraction of the nth substance listed

CCCCCC[n+]1ccn(C)c1.F[B-](F)(F)F + CC[n+]1ccn(C)c1.F[B-](F)(F)F
101 kPa
Settings	viscosity [mPa·s]
298.15 K, x2 = 0	211 ± 11
298.15 K, x2 = 0.4061	111.8 ± 3.2
298.15 K, x2 = 0.793	53.76 ± 0.79
299.15 K, x2 = 0	198.1 ± 9.5
299.15 K, x2 = 0.1196	162.2 ± 6.6
299.15 K, x2 = 0.1803	148.6 ± 5.7
299.15 K, x2 = 0.3145	121.9 ± 3.9
299.15 K, x2 = 0.4938	91.2 ± 2.1
299.15 K, x2 = 0.6006	74.7 ± 1.4
299.15 K, x2 = 0.793	51.53 ± 0.68
299.15 K, x2 = 0.9022	41.62 ± 0.61
301.15 K, x2 = 0.0545	155.3 ± 6.2
301.15 K, x2 = 0.1803	132.9 ± 4.6
301.15 K, x2 = 0.8516	42.79 ± 0.63
301.15 K, x2 = 0.9022	38.54 ± 0.56
302.15 K, x2 = 0	167.2 ± 7
302.15 K, x2 = 0.1196	137.4 ± 4.9
302.15 K, x2 = 0.8516	41.13 ± 0.6
302.15 K, x2 = 0.9022	37.08 ± 0.53
303.15 K, x2 = 0.5526	68.4 ± 1.1
303.15 K, x2 = 0.6006	62.29 ± 0.92
303.15 K, x2 = 0.7059	51.99 ± 0.68
303.15 K, x2 = 0.793	43.73 ± 0.64
304.15 K, x2 = 0.7059	49.86 ± 0.74
304.15 K, x2 = 0.9022	34.46 ± 0.49
305.15 K, x2 = 0.3145	89.6 ± 2
305.15 K, x2 = 0.4938	68.4 ± 1.1
305.15 K, x2 = 0.6006	57.12 ± 0.79
305.15 K, x2 = 0.793	40.44 ± 0.59
305.15 K, x2 = 0.9022	33.23 ± 0.47
307.15 K, x2 = 0.793	37.44 ± 0.54
307.15 K, x2 = 0.9022	30.96 ± 0.44
308.15 K, x2 = 0.3145	77.6 ± 1.4
308.15 K, x2 = 0.4938	59.86 ± 0.84
308.15 K, x2 = 0.6006	50.38 ± 0.61
308.15 K, x2 = 0.793	36.05 ± 0.47
308.15 K, x2 = 0.9022	29.94 ± 0.39

CCCCn1cc[n+](CCOCCOCCOCCOCC[n+]2ccn(CCCC)c2)c1.N#C[N-]C#N.N#C[N-]C#N + CC[n+]1ccn(C)c1.N#C[N-]C#N + O=S(=O)([N-]S(=O)(=O)C(F)(F)F)C(F)(F)F.[Li+]
100 kPa, x1 = 0.2104, x2 = 0.6943
Settings	electrical conductivity [S/m]
298 K	0.471 ± 0.019
303 K	0.549 ± 0.022
313 K	0.79 ± 0.032
323 K	1.05 ± 0.042
333 K	1.37 ± 0.055
343 K	1.67 ± 0.067

F[B-](F)(F)F.[Li+] + CC[n+]1ccn(C)c1.O=S(=O)([N-]S(=O)(=O)C(F)(F)F)C(F)(F)F
electrical conductivity [S/m], 101 kPa
Settings	x2 = 0.7088	x2 = 0.7396	x2 = 0.8073	x2 = 0.8856	x2 = 0.9623
288.15 K	–	0.238 ± 0.024	0.31 ± 0.031	0.431 ± 0.043	0.542 ± 0.054
298.15 K	0.295 ± 0.03	0.384 ± 0.039	0.489 ± 0.049	0.651 ± 0.065	0.807 ± 0.081
333.15 K	1.01 ± 0.1	1.18 ± 0.12	1.4 ± 0.14	1.72 ± 0.17	2.03 ± 0.2

O=C1OCCO1 + CC[n+]1ccn(C)c1.O=S(=O)([N-]S(=O)(=O)C(F)(F)F)C(F)(F)F
100 kPa
Settings	electrical conductivity [S/m]	viscosity [mPa·s]
293.15 K, x1 = 0.8163	–	5 ± 0.5
293.15 K, x1 = 0.98	0.62 ± 0.04	–
303.15 K, x1 = 0.5263	–	11.5 ± 1.2
303.15 K, x1 = 0.7476	–	6.1 ± 0.6
313.15 K, x1 = 0.95	1.42 ± 0.09	–
333.15 K, x1 = 0.8163	–	2.4 ± 0.2
333.15 K, x1 = 0.95	1.84 ± 0.11	–
343.15 K, x1 = 0.5263	–	4.6 ± 0.5
343.15 K, x1 = 1	–	1.16 ± 0.12
353.15 K, x1 = 0.66	4.47 ± 0.27	–
353.15 K, x1 = 0.82	4.06 ± 0.24	–
353.15 K, x1 = 0.9467	–	1.33 ± 0.13
353.15 K, x1 = 0.98	1.37 ± 0.08	–
363.15 K, x1 = 0.8163	–	1.56 ± 0.16
373.15 K, x1 = 0.5263	–	3 ± 0.3
373.15 K, x1 = 1	–	0.85 ± 0.09
383.15 K, x1 = 0.7476	–	1.63 ± 0.16
393.15 K, x1 = 0.7476	–	1.49 ± 0.15
393.15 K, x1 = 0.9467	–	0.91 ± 0.09

F[B-](F)(F)F.[Li+] + CC[n+]1ccn(C)c1.O=S(=O)([O-])C(F)(F)F
electrical conductivity [S/m], 101 kPa
Settings	x1 = 0.007746	x1 = 0.01537	x2 = 0.9648	x2 = 0.9746
288.15 K	0.628 ± 0.063	0.59 ± 0.059	–	0.537 ± 0.054
298.15 K	0.908 ± 0.091	0.855 ± 0.086	0.796 ± 0.08	0.797 ± 0.08
333.15 K	2.25 ± 0.23	2.19 ± 0.22	2.06 ± 0.21	2.07 ± 0.21

O=[N+]([O-])[O-].[Li+] + CC[n+]1ccn(C)c1.O=S(=O)([O-])C(F)(F)F
electrical conductivity [S/m], 101 kPa
Settings	x2 = 0.8748	x2 = 0.9165	x2 = 0.9576	x2 = 0.9746
288.15 K	0.38 ± 0.038	0.454 ± 0.046	0.563 ± 0.057	0.562 ± 0.056
298.15 K	0.587 ± 0.059	0.68 ± 0.068	0.818 ± 0.082	0.816 ± 0.082
333.15 K	1.69 ± 0.17	1.85 ± 0.18	2.07 ± 0.21	2.1 ± 0.21

CC(C)[C@H](N)C(=O)O + CC[n+]1ccn(C)c1.O=S(=O)([O-])O + O
viscosity [mPa·s], 100 kPa
Settings	x1 = 0.0003621, x2 = 0	x1 = 0.0007257, x2 = 0	x1 = 0.001091, x2 = 0	x1 = 0.001447, x2 = 0	x1 = 0.001793, x2 = 0	x1 = 0.002246, x2 = 0	x1 = 0.002701, x2 = 0
293.15 K	1.023 ± 0.033	1.043 ± 0.033	1.064 ± 0.033	1.084 ± 0.033	1.103 ± 0.033	1.128 ± 0.033	1.154 ± 0.033
298.15 K	0.899 ± 0.032	0.907 ± 0.032	0.916 ± 0.031	0.924 ± 0.031	0.931 ± 0.031	0.941 ± 0.031	0.952 ± 0.034
303.15 K	0.805 ± 0.031	0.812 ± 0.031	0.82 ± 0.031	0.827 ± 0.031	0.835 ± 0.031	0.844 ± 0.031	0.854 ± 0.031
308.15 K	0.727 ± 0.031	0.734 ± 0.031	0.742 ± 0.031	0.749 ± 0.031	0.756 ± 0.031	0.765 ± 0.031	0.774 ± 0.031
313.15 K	0.66 ± 0.031	0.666 ± 0.031	0.673 ± 0.031	0.679 ± 0.031	0.686 ± 0.031	0.694 ± 0.031	0.703 ± 0.031

O=C(O)C(F)(F)C(F)(F)C(F)(F)C(F)(F)F + CC[n+]1ccn(C)c1.[Cl-]
102 kPa
Settings	viscosity [mPa·s]
293.15 K, x2 = 0.6636	295 ± 14
303.15 K, x2 = 0.3346	24.2 ± 1
313.15 K, x2 = 0.3346	17.41 ± 0.74
318.15 K, x2 = 0.5026	31.7 ± 1.3
323.15 K, x2 = 0.5026	26.6 ± 1.1
333.15 K, x2 = 0.5026	19.35 ± 0.81
333.15 K, x2 = 0.6636	39.1 ± 1.6
338.15 K, x2 = 0.3346	8.91 ± 0.38
338.15 K, x2 = 0.5026	16.68 ± 0.7
348.15 K, x2 = 0.5026	12.76 ± 0.54
353.15 K, x2 = 0.3346	6.42 ± 0.27

CC(C)=O + CC[n+]1ccn(C)c1C.F[B-](F)(F)F
101.3 kPa, x2 = 0
Settings	viscosity [mPa·s]
293.15 K	0.325 ± 0.031
298.15 K	0.303 ± 0.029
303.15 K	0.297 ± 0.028
308.15 K	0.283 ± 0.027
313.15 K	0.269 ± 0.025
318.15 K	0.251 ± 0.024
323.15 K	0.244 ± 0.023

CCC(=O)[O-].C[NH+](C)Cc1ccccc1 + CN(C)C=O
viscosity [mPa·s], 101 kPa
Settings	293.15 K	298.15 K	303.15 K	308.15 K	313.15 K	318.15 K	323.15 K	328.15 K
x1 = 0.006283	0.957 ± 0.058	0.915 ± 0.055	0.878 ± 0.053	0.846 ± 0.051	0.817 ± 0.049	0.79 ± 0.048	0.767 ± 0.046	0.745 ± 0.045
x1 = 0.009868	0.965 ± 0.058	0.923 ± 0.056	0.885 ± 0.053	0.852 ± 0.051	0.822 ± 0.05	0.795 ± 0.048	0.771 ± 0.047	0.749 ± 0.045
x1 = 0.01556	0.974 ± 0.059	0.93 ± 0.056	0.893 ± 0.054	0.858 ± 0.052	0.828 ± 0.05	0.8 ± 0.048	0.776 ± 0.047	0.753 ± 0.046
x1 = 0.01941	0.985 ± 0.06	0.94 ± 0.057	0.901 ± 0.054	0.866 ± 0.052	0.834 ± 0.05	0.807 ± 0.049	0.781 ± 0.047	0.758 ± 0.046
x2 = 0.9599	1.036 ± 0.063	0.986 ± 0.06	0.94 ± 0.057	0.9 ± 0.054	0.865 ± 0.052	0.834 ± 0.05	0.806 ± 0.049	0.781 ± 0.047
x2 = 0.9647	1.025 ± 0.062	0.975 ± 0.059	0.932 ± 0.056	0.893 ± 0.054	0.858 ± 0.052	0.828 ± 0.05	0.801 ± 0.048	0.776 ± 0.047
x2 = 0.9703	1.012 ± 0.061	0.964 ± 0.058	0.922 ± 0.056	0.884 ± 0.053	0.851 ± 0.051	0.821 ± 0.05	0.794 ± 0.048	0.77 ± 0.047
x2 = 0.9751	0.997 ± 0.06	0.95 ± 0.057	0.91 ± 0.055	0.873 ± 0.053	0.841 ± 0.051	0.813 ± 0.049	0.787 ± 0.048	0.764 ± 0.046

CCCCCC[n+]1ccn(C)c1.F[B-](F)(F)F + CN(CCO)CCO
101 kPa
Settings	viscosity [mPa·s]
303.15 K, x2 = 0.3916	72.6 ± 4.4
303.15 K, x2 = 0.4949	69.8 ± 4.3
303.15 K, x2 = 0.7928	62.2 ± 3.8
313.15 K, x2 = 0.5936	41.8 ± 2.6
313.15 K, x2 = 0.8824	36.8 ± 2.2
318.15 K, x2 = 0.4949	34.3 ± 2.1

COP(=O)([O-])OC.Cn1cc[n+](C)c1 + CN(CCO)CCO + O
Settings	viscosity [mPa·s]
343.15 K, x2 = 0.4346, x3 = 0.3656	10.65 ± 0.65
